Test results from patent US20230181638A1, “IMMUNOGENIC PEPTIDES WITH NEW OXIDOREDUCTASE MOTIFS” (IMCYSE SA, priority 2020, published 2023).
Where a SMILES comes first, the peptide text is derived from it. Where no end group is shown, it is not given here.

How the values were obtained:
[1] = system: Experimental Auto-Immune Encephalomyelitis (EAE); assay: therapeutic administration, EAE clinical score in mice; format: in vivo; details: for mice died: therapeutic EAE study, 16 mice per group, deaths did not appear to be due to EAE
Experimental: The study used a total of 64 female C57BL/6 mice (Taconic Biosciences, 9 weeks old on Day 0). Mice were acclimated for 7 days prior to the first injection. Mice were assigned to groups in a balanced manner to achieve similar average weight across the groups at the start of the study.
Dosing of all mice was performed once on each of the days indicated in Table 6, s.c., at a volume of 0.05 mL/site, each mouse receiving injection at two sites, for a total of 0.1 mL/mouse/dosing day. IMCY-0189, IMCY-0453 or IMCY-0455 peptide total close was […] per administration.
For Saline treatment, 0.9% NaCl solution was prepared at each dosing day. Peptide's preparation was performed as described in example 3.
(§1) AUC, MMS, inflammation and demyelination, and NF-L levels quantification data were analyzed by performing Ordinary one-way ANOVA. Adjustment for multiplicity was performed using Holm-Sidak's method. Significant differences are referred as follows: *p<0.05, **p<0.01, ***p<0.001, ****p<0.0001.
EAE induction and scoring were performed as described in example 3.
EAE development was evaluated by comparing clinical EAE readouts for all groups to the negative control (Saline) group.

[2] = system: Experimental Auto-Immune Encephalomyelitis (EAE); assay: prophylactic administration, EAE clinical score in mice; format: in vivo, C57BL/6 mice; details: vs Alum control group, FIG. 2C, FIG. 4
2D2-Total CD4+ cells = assay: induction of lytic markers on CD4+ T cells after second stimulation; format: cell-based, 2D2 transgenic mice; details: 5 μM control peptide, 10-14 days after S1
Source text: 2D2 transgenic mice (Jackson Laboratory) were used as a source of CD4+ cell. […] In this study, 2D2-Total CD4+ cells were purified using manufacture instruction (Miltenyi Biotec, 130-104-454) and antigen presenting cells were splenocyte depleted for T cell repertoire (CD90.2 depletion, Miltenyi Biotec, 130-104-454) from C57BL6 mice (compatible with 2D2-transgenic mice). Control conditions for every study were either no-peptide addition or addition of IMCY-0017, IMCY-0257 or IMCY-0069 (see example 1 and table 1) which the two later, can bind to MHCII from C57BL6-APC efficiently but not activate the TCR from 2D2-transgenic CD4+ T cells. AA controls were not used.
Immunogenic peptides comprising an MCHII T cell epitope and a classical oxidoreductase motif of sequence CxxC are known from the art to induce CD4+ cells with lytic markers called cytolytic CD4+ cells (cCD4+). Therefore, it was attempted to determine whether the peptide variants of the present invention would lead to earlier and/or stronger (percentage or intensity) lytic properties in activated Ag-specific CD4 T cells. […] The FACS results were then determined for all variants of IMCY-0189 and the measurement for the wild type peptide (IMCY-0017) was removed from all the other measurements to determine purely the effect of every modified oxidoreductase motif on the induction of lytic properties.

[3] = system: Experimental Auto-Immune Encephalomyelitis (EAE); assay: therapeutic EAE study, spinal cord histology (H&E, anti-MBP); format: in vivo, C57BL/6 mice; details: spinal cord sections at end of study, vs Saline control
Experimental: At the end of the study, all mice were euthanized, and spines were collected and placed in 10% buffered formalin for histological analysis.
For each spine, one H&E stained slide and one anti-MBP stained slide were prepared and analyzed. Each slide contained a section with samples from lumbar, thoracic and cervical of spinal cord (3 samples). All analysis was performed by a pathologist blinded to the experimental groups and all clinical readouts.
Inflammatory foci of approximately 20 cells were counted in each H&E stained section. When inflammatory infiltrates consisted of more than 20 cells, an estimate was made of how many foci of 20 cells were present.
Demyelination was scored in each anti-MBP (using immunohistochemistry) stained section. In anti-MBP sections, demyelination is observed as conspicuous unstained areas in white matter tracts and is associated with presence of large vacuoles. […]
AUC, MMS, inflammation and demyelination, and NF-L levels quantification data were analyzed by performing Ordinary one-way ANOVA. […]
Histological readouts were evaluated by comparing inflammation and demyelination levels for all groups to the negative control (Saline) group.

[4] = system: Neurofilament light (NF-L) protein; assay: therapeutic EAE study, serum neurofilament levels (Simoa NF-light); format: in vivo, C57BL/6 mice; details: serum on Day 28, vs Saline negative control, FIG. 10
Experimental: On Day 28, blood was collected from all mice into gel dot activator tubes and allowed to dot at room temperature for ˜30 minutes. Blood is then centrifuged at ˜10000 g for 5 minutes. Serum was transferred into Eppendorf tubes and stored at −80° C. until shipment to Quanterix™. Serum Neurofilament light (NF-L) protein levels were quantified using Simoa® NF-light Advantage kit, a digital immunoassay for the quantitative determination of NF-L in serum, plasma and CSF. The used antibodies (Uman Diagnostics, Umeå Sweden) also cross react with murine, bovine and macaque NF-L epitopes and as such, this assay can be used for research with these species. All samples were tested in duplicate at a dilution factor of 40×.
as §1
Axonal damage was also evaluated by comparing NF-L levels for all groups to the negative control (Saline) group.

[5] = therapeutic, 30 μg s.c. with Alum on Days 4, 9, 14, 19, vs Saline negative control

CC(C)C[C@H](NC(=O)[C@H](Cc1c[nH]cn1)NC(=O)[C@@H](NC(=O)[C@@H](NC(=O)[C@H](CCCNC(=N)N)NC(=O)[C@H](CO)NC(=O)[C@H](Cc1ccccc1)NC(=O)[C@@H]1CCCN1C(=O)[C@H](CO)NC(=O)[C@H](CCCNC(=N)N)NC(=O)[C@H](Cc1ccc(O)cc1)NC(=O)[C@H](Cc1c[nH]c2ccccc12)NC(=O)CNC(=O)[C@H](CS)NC(=O)[C@H](Cc1ccc(O)cc1)NC(=O)[C@@H]1CCCN1C(=O)[C@H](CS)NC(=O)[C@@H](N)Cc1c[nH]cn1)C(C)C)C(C)C)C(=O)N[C@@H](Cc1ccc(O)cc1)C(=O)N[C@@H](CCCNC(=N)N)C(N)=O [IMCY-0189, HCPYC-GWYRSPFSRVVHLYR-NH2, reference compound] (H-HCPYCGWYRSPFSRVVHLYR-NH2)
mice died [1]: No mice died

CC(C)C[C@H](NC(=O)[C@H](Cc1c[nH]cn1)NC(=O)[C@@H](NC(=O)[C@@H](NC(=O)[C@H](CCCNC(=N)N)NC(=O)[C@H](CO)NC(=O)[C@H](Cc1ccccc1)NC(=O)[C@@H]1CCCN1C(=O)[C@H](CO)NC(=O)[C@H](CCCNC(=N)N)NC(=O)[C@H](Cc1ccc(O)cc1)NC(=O)[C@H](Cc1c[nH]c2ccccc12)NC(=O)CNC(=O)[C@H](CS)NC(=O)[C@H](CCCNC(=N)N)NC(=O)[C@H](CS)NC(=O)[C@@H](N)CCCCN)C(C)C)C(C)C)C(=O)N[C@@H](Cc1ccc(O)cc1)C(=O)N[C@@H](CCCNC(=N)N)C(N)=O [IMCY-0453, KCRC-GWYRSPFSRVVHLYR-NH2] (H-KCRCGWYRSPFSRVVHLYR-NH2)
mice died [1]: 1

CPYC-GWYRSPFSRVVHLYR-NH2 (CPYCGWYRSPFSRVVHLYR-NH2; cysteine pairing not given here) [IMCY-0443]
reduction of the peak of the disease or MMS [2]: not observed

HCPYC-LALWEPKPTQAFVK-NH2 (HCPYCLALWEPKPTQAFVK-NH2; cysteine pairing not given here) [IMCY-0069]
survival of the cell culture up to second stimulation (2D2-Total CD4+ cells): did not survive in the cell culture

HCPYC-NGGFNSNRANSSRSS-NH2 (HCPYCNGGFNSNRANSSRSS-NH2; cysteine pairing not given here) [IMCY-0257]
survival of the cell culture up to second stimulation (2D2-Total CD4+ cells): did not survive in the cell culture

KCRPYC-GWYRSPFSRVVHLYR-NH2 (KCRPYCGWYRSPFSRVVHLYR-NH2; cysteine pairing not given here) [IMCY-0455, KCRPYC motif variant of IMCY-0189]
mice died [1]: 1
all clinical readouts (disease onset, end score, AUC and MMS) as compared to IMCY-0189 ([1]; therapeutic, 30 μg s.c. with Alum on Days 4, 9, 14, 19, vs IMCY-0189 group): statistically significantly improved
disease onset [1, 5]: statistically significantly improved
end score [1, 5]: statistically significantly improved
AUC of EAE scores ([1]; therapeutic, 30 μg s.c. with Alum on Days 4, 9, 14, 19, vs Saline negative control, FIG. 6): statistically significantly improved
MMS of EAE scores ([1]; therapeutic, 30 μg s.c. with Alum on Days 4, 9, 14, 19, vs Saline negative control, FIG. 7): statistically significantly improved
level of inflammation (inflammatory foci, H&E) ([3]; FIG. 8): statistically significant reduced level
level of demyelination (anti-MBP score) ([3]; FIG. 9): statistically significant reduced level
serum NF-L levels [4]: statistically significant reduced
